Reference: patent EP0640601B1, “BENZAMIDE DERIVATIVE” (HOKURIKU SEIYAKU CO., LTD., priority 1991, dated 1992)
Structures can show the parent of a compound that is named as a salt. Where two headings read alike, the source gives them in different places.

Test system: gastrointestinal motility
Test: Effects on gastrointestinal motility in conscious dog (force transducers implanted on stomach and colon, motor index)
Format: in vivo
Conditions: Canis lupus familiaris, iv, 20 min, about two hours after feeding, motor index for twenty minutes before and after administration; for change in vivo at 1 mg/kg: dose 1 mg/kg i.v.; for change in vivo at 0.1 mg/kg: dose 0.1 mg/kg i.v.
Procedure: Under systemical anesthesia, force transducers were chronically implanted to the stomach and the colon of the adult male or female dogs in a direction to measure circular muscle contraction according to the method of Ito et al. (Japanese Journal of Smooth Muscle Research, 13, 33, 1976). A silicone tube chronically attached into jugular vein for intravenous administration of test compounds. After the animal was recovered from the operation, test compounds were administered at about two hours after feeding while gastrointestinal motility was measured. The gastrointestinal motility was indicated as motor index, and the effects of test compounds were estimated by the change of motor index for twenty minutes before and after the administration. […]

[1] = colon, read-out: Change of Motor Index (%) Colon
[2] = stomach, read-out: Change of Motor Index (%) Stomach

Compound	change in vivo at 1 mg/kg [1]	change in vivo at 1 mg/kg [2]	change in vivo at 0.1 mg/kg [1]	change in vivo at 0.1 mg/kg [2]
CCOC(=O)CN1[C@@H]2CC[C@H]1C[C@@H](NC(=O)c1cc(Cl)c(N)cc1OC)C2 [Example 32, Ethyl endo-[3-(4-amino-5-chloro-2-methoxybenzamido)-8-azabicyclo[3.2.1]oct-8-yl]acetate]	158%	177%	–	–
COc1cc(N)c(Cl)cc1C(=O)NC1CCN(CC(=O)O)CC1 [Example 58, [4-[(4-Amino-5-chloro-2-methoxybenzamido)piperidino]acetic acid hydrochloride]	–	–	218%	181%
COc1cc(N)c(Cl)cc1C(=O)NC1CCN(C(C)C(=O)O)CC1 (stereo not drawn) [Example 63, 2-[4-(4-Amino-5-chloro-2-methoxybenzamido)piperidino]propionic acid]	157%	130%	–	–
CCOC(=O)CCCCN1[C@@H]2CCC[C@H]1C[C@@H](NC(=O)c1cc(Cl)c(N)cc1OC)C2 [Example 28, Ethyl endo-5-[3-(4-amino-5-chloro-2-methoxybenzamido)-9-azabicyclo[3.3.1]non-9-yl]valerate]	164%	142%	–	–
COc1cc(N)c(Cl)cc1C(=O)N[C@H]1CCN(CC(=O)O)C[C@H]1OC (relative stereo) [Example 64, cis-[4-(4-Amino-5-chloro-2-methoxybenzamido)-3-methoxypiperidino]acetic acid]	–	–	234%	200%
CCOC(=O)CCN1[C@@H]2CCC[C@H]1C[C@@H](NC(=O)c1cc(Cl)c(N)cc1OC)C2 [Example 27, Ethyl endo-3-[3-(4-amino-5-chloro-2-methoxybenzamido)-9-azabicyclo[3.3.1]non-9-yl]propionate]	–	–	134%	113%
COc1cc(N)c(Cl)cc1C(=O)N[C@H]1C[C@H]2CCC[C@@H](C1)N2CCCC(=O)O [Example 35, endo-4-[3-(4-Amino-5-chloro-2-methoxybenzamido)-9-azabicyclo[3.3.1]non-9-yl]butyric acid hydrochloride]	136%	187%	–	–
CCOC(=O)CCCCCN1[C@@H]2CCC[C@H]1C[C@@H](NC(=O)c1cc(Cl)c(N)cc1OC)C2 [Example 25, Ethyl endo-6-[3-(4-amino-5-chloro-2-methoxybenzamido)-9-azabicyclo[3.3.1]non-9-yl]hexanoate]	133%	181%	–	–
CCOc1cc(N)c(Cl)cc1C(=O)NC1CC2CCCC(C1)N2CC(=O)O (stereo not drawn) [Example 41, endo-[3-(4-Amino-5-chloro-2-ethoxybenzamido)-9-azabicyclo[3.3.1]non-9-yl]acetic acid hydrochloride]	172%	118%	–	–
COc1cc(N)c(Cl)cc1C(=O)N[C@H]1C[C@H]2CCC[C@@H](C1)N2CCCCCC(=O)O [Example 36, endo-6-[3-(4-Amino-5-chloro-2-methoxybenzamido)-9-azabicyclo[3.3.1]non-9-yl]hexanoic acid hydrochloride]	120%	196%	–	–
COc1cc(N)c(Cl)cc1C(=O)NC1CC2CCC(C1)N2CC(=O)O (stereo not drawn) [Example 43, endo-[3-(4-Amino-5-chloro-2-methoxybenzamido)-8-azabicyclo[3.2.1]oct-8-yl]acetic acid hydrochloride]	505%	166%	–	–
COc1cc(N)c(Cl)cc1C(=O)N[C@H]1C[C@H]2CCC[C@@H](C1)N2CCC(=O)O [Example 38, endo-3-[3-(4-Amino-5-chloro-2-methoxybenzamido)-9-azabicyclo[3.3.1]non-9-yl]propionic acid hydrochloride]	140%	146%	–	–
COc1cc(N)c(Cl)cc1C(=O)N[C@H]1C[C@H]2CCC[C@@H](C1)N2CCCCC(=O)O [Example 39, endo-5-[3-(4-Amino-5-chloro-2-methoxybenzamido)-9-azabicyclo[3.3.1]non-9-yl]valeric acid hydrochloride]	–	–	159%	135%
CCOC(=O)CN1[C@@H]2CCC[C@H]1C[C@@H](NC(=O)c1cc(Cl)c(N)cc1OC)C2 [Example 23, Ethyl endo-[3-(4-amino-5-chloro-2-methoxybenzamido)-9-azabicyclo[3.3.1]non-9-yl]acetate]	133%	134%	–	–
COc1cc(N)c(Cl)cc1C(=O)N[C@H]1C[C@H]2CCC[C@@H](C1)N2CC(=O)O [Example 34, endo-[3-(4-Amino-5-chloro-2-methoxybenzamido)-9-azabicyclo[3.3.1]non-9-yl]acetic acid hydrochloride]	192%	187%	–	–
CCOC(=O)CCCN1[C@@H]2CCC[C@H]1C[C@@H](NC(=O)c1cc(Cl)c(N)cc1OC)C2 [Example 24, Ethyl endo-4-[3-(4-amino-5-chloro-2-methoxybenzamido)-9-azabicyclo[3.3.1]non-9-yl]butyrate]	–	–	135%	116%
CCOC(=O)CN1CCC(NC(=O)c2cc(Cl)c(N)cc2OC)CC1 [Example 46, Ethyl [4-(4-amino-5-chloro-2-methoxybenzamido)piperidino]acetate hydrochloride]	166%	182%	–	–
CCOC(=O)CN1[C@@H]2CC[C@H]1C[C@H](NC(=O)c1cc(Cl)c(N)cc1OC)C2 [Example 33, Ethyl exo-[3-(4-amino-5-chloro-2-methoxybenzamido)-8-azabicyclo[3.2.1]oct-8-yl]acetate]	117%	147%	–	–
